According to US20110009624A9, “BENZIMIDAZOLE COMPOUNDS HAVING GASTRIC ACID SECRETION INHIBITORY ACTION” (priority 2006, published 2011):
pIC50: −log10 of the molar value.

What was measured:
[1] = tested on: gastric acid secretion (histamine-stimulated); test: Gastric acid secretion inhibitory effects in dogs fitted with chronic gastric fistula tube; assay type: in vivo; conditions: for Gastric acid secretion inhibitory action (%) / Duration of gastric acid secretion inhibitory action (%): dogs with chronic gastric fistula tube, histamine i.v., 1.6 mg/kg i.d.; for Gastric acid secretion inhibitory action (%): day 1 (1 h 40 min to 2 h after administration); for Duration of gastric acid secretion inhibitory action (%): day 2 (24 hours after administration); for gastric acid secretion inhibitory action and duration of gastric acid secretion inhibitory action (assessment in words): on the basis of Table 1
Method: Gastric Acid Secretion Inhibitory Effects in Dogs Fitted with Chronic Gastric Fistula Tube
The gastric acid secretion inhibitory and duration of gastric acid secretion inhibitory action of compounds of the examples were assessed using large dogs fitted with a chronic gastric fistula tube (body weights: approx. 14 to 19 kg). The experiment was conducted for 2 days. On the first day, gastric juices were collected every 20 minutes under conditions of continuous intravenous administration of histamine (50 or 75 μg/kg/h) for 3 hours. A compound of the examples dissolved or suspended in 0.5% methyl cellulose solution was administered via a catheter implanted in the duodenum at the rate of 0.1 ml/kg one hour after the start of histamine administration. The gastric acid secretion inhibitory action of the compound of the examples was assessed over the next two hours. On the second day (24 hours after administration of the compound of the examples), gastric juices were collected every 20 minutes under conditions of continuous intravenous administration of histamine for 2 hours followed by assessment of the duration of gastric acid secretion inhibitory action. After measuring the amount of gastric juices, 0.5 ml of gastric juice were sampled and titrated to neutrality to a pH of 7.0 with 0.04 mol/L aqueous sodium hydroxide solution to measure acid concentration. The amount of gastric acid discharged was determined by multiplying the amount of gastric juice by the acid concentration. Gastric acid secretion inhibitory action was evaluated as the rate of gastric acid secretion inhibition (%) on day 1. Gastric acid secretion inhibitory action (%) was determined according to the formula indicated below:
Gastric acid secretion inhibitory action (%)=(A−B)/A×100
[A]: amount of gastric acid discharged for 20 minutes from 40 minutes to 1 hour after the start of administration of histamine
[B]: amount of gastric acid discharged for 20 minutes from 1 hour 40 minutes to 2 hours after the start of administration of the compound of the examples.
The duration of gastric acid secretion inhibitory action was evaluated as the rate of gastric acid secretion inhibition (%) on day 2. The duration of gastric acid secretion inhibitory action (%) was determined according to the formula indicated below:
Duration of gastric acid secretion inhibitory action (%)=(C−D)/C×100
[C]: Total amount of gastric acid discharged from start of administration of histamine on day 1 to one hour later
[D]: Total amount of gastric acid discharged from start of administration of histamine on day 2 to one hour later.

H+, K+-ATPase = target: T1, H+, K+-ATPase (Sus scrofa, UniProt P19156); test: H+, K+-ATPase activity inhibitory action; assay type: biochemical; conditions: hog gastric mucosa enzyme, preincubation 30 minutes at 37° C., pH 6.1
T1 construct: H^+, K^+-ATPase was prepared from a fundic gland area of fresh hog gastric mucosa; from tissue; host or cells: fundic gland area of fresh hog gastric mucosa
Method: H^+, K^+-ATPase Activity Inhibitory Action
H^+, K^+-ATPase was prepared from a fundic gland area of fresh hog gastric mucosa using a variation of the Chang's method [Biochim. Biophys. Acta 464, 313 (1977)].
(1) The sodium salt of 2-[[[4-[3-hydroxy-2-(hydroxymethyl)propoxy]-3,5-dimethylpyridin-2-yl]methyl]sulfinyl]-1H-benzimidazole (Example 15) and (2) 3-[3-hydroxy-2-(hydroxymethyl)propoxy]-2,4-dimethyl-5H-pyrido[1′,2′,4,5][1,2,4]thiadiazino[2,3-a]benzimidazolium hexafluorophosphate (Example 16) were selected for the test compounds, and each was used after dissolving in methanol.
10 μL aliquots of various concentrations of the test compounds or solvent were mixed into 200 μL of 50 μg/mL H^+, K^+-ATPase, 100 μL of 10 mmol/L Pipes-Tris (pH 6.1) and 190 μL of distilled water followed by incubating for 30 minutes at 37° C., adding 150 μL of 100 mmol/L KCl (or distilled water) and 10 μL of 100 μg/mL gramicidin, and further incubating for 10 minutes. […] The amount of inorganic phosphoric acid that was released during this 10 minute period was measured in compliance with the method of Yoda and Hokin (Biochem. Biophys. Res. Commun., 40, 880, 1970). […]
Residual enzyme activity at each concentration of test compound was determined as the amount of H^+, K^+-ATPase activity as a percentage of the H^+, K^+-ATPase activity of a control group (solvent addition). […]

T1 sequence (P19156 whole entry): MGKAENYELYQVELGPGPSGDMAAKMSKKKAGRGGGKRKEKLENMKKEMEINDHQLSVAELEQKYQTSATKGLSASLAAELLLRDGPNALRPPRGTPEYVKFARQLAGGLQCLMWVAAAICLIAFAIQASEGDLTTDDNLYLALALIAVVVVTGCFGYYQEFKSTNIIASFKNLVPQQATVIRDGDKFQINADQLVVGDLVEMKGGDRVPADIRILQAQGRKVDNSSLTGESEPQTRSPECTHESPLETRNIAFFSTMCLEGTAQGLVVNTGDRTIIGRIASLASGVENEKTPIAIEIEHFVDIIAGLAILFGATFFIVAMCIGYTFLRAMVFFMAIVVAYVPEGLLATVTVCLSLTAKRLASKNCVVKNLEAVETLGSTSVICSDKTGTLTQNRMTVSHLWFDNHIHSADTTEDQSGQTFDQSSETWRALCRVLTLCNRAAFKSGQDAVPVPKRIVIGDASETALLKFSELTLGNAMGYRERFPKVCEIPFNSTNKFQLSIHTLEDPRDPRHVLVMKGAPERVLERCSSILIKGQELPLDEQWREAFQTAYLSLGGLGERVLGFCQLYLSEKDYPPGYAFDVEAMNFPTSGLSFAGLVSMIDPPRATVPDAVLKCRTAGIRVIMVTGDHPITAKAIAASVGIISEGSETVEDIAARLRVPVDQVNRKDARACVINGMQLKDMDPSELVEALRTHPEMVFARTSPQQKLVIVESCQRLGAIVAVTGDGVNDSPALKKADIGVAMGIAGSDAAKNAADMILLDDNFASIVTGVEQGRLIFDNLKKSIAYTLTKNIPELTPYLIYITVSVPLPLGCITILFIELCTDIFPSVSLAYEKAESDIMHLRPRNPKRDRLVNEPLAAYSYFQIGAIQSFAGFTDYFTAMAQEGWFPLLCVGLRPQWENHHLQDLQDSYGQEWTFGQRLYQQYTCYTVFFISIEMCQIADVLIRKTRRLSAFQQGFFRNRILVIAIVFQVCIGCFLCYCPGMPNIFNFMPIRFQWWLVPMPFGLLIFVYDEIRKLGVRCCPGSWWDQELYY
T1 sequence (P18434 whole entry partner): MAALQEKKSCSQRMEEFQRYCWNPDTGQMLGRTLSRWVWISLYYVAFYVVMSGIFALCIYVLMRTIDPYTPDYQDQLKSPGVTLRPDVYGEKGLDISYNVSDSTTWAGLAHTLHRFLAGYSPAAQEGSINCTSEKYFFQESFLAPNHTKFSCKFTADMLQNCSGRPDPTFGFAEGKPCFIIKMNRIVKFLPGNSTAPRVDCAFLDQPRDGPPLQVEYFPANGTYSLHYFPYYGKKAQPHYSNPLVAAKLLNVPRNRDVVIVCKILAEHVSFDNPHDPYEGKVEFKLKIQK

SMILES	Gastric acid secretion inhibitory action (%) [1]	Duration of gastric acid secretion inhibitory action (%) [1]	gastric acid secretion inhibitory action and duration of gastric acid secretion inhibitory action (assessment in words) [1]	pIC50 (H+, K+-ATPase)
Cc1c(OCCCC2COC3(CCC3)O2)ccnc1C[S+]([O-])c1nc2ccccc2[n-]1.[Na+] (stereo not shown) [Example 9, 2-[[[4-[3-(5,8-dioxaspiro[3.4]octa-6-yl)propoxy]-3-methylpyridin-2-yl]methyl]sulfinyl]-1H-benzimidazole]	100%	89%	satisfactory	
Cc1c(OCCC2COC3(CCOCC3)O2)ccnc1C[S+]([O-])c1nc2ccccc2[n-]1.[Na+] (stereo not shown) [Example 13, 2-[[[3-methyl-4-[2-(1,4,8-trioxaspiro[4.5]deca-2-yl)ethoxy]pyridin-2-yl]methyl]sulfinyl]-1H-benzimidazole]	100%	84%	satisfactory	
Cc1c[n+]2c(c(C)c1OCC(CO)CO)CSn1c-2nc2ccccc21 [Example 16, 3-[3-Hydroxy-2-(hydroxymethyl)propoxy]-2,4-dimethyl-5H-pyrido[1′,2′,4,5][1,2,4]thiadiazino[2,3-a]benzimidazolium hexafluorophosphate]				6.66
